In patent publication US4436733A, “4"- And 3-ester derivatives of DMT and DMOT” (Eli Lilly and Company, priority 1982, dated 1984):
Like-named read-outs stand apart in the source and are kept apart here.

Key:
[1] = system: Staphylococcus aureus S13E; experiment: standard agar-dilution assay, MIC; assay type: cell-based
Method: (§1) The MIC's in Table III were determined by standard agar-dilutionassays. The MIC's in Table IV were obtained using a conventional broth-dilution microtiter test.

[2] = system: Staphylococcus aureus X1.1; experiment: standard agar-dilution assay, MIC; assay type: cell-based
Method: as §1

[3] = system: Staphylococcus epidermidis EPI1; experiment: standard agar-dilution assay, MIC; assay type: cell-based
Method: as §1

[4] = system: Staphylococcus epidermidis EPI2; experiment: standard agar-dilution assay, MIC; assay type: cell-based
Method: as §1

Streptococcus Group 9960 = experiment: standard agar-dilution assay, MIC; assay type: cell-based
Method: as §1

[5] = system: Streptococcus Group D X66; experiment: standard agar-dilution assay, MIC; assay type: cell-based
Method: as §1

[6] = system: Streptococcus pneumoniae Park I; experiment: standard agar-dilution assay, MIC; assay type: cell-based
Method: as §1

[7] = system: Streptococcus pyogenes C203; experiment: standard agar-dilution assay, MIC; assay type: cell-based
Method: as §1

[8] = system: Staphylococcus aureus V41; experiment: standard agar-dilution assay, MIC; assay type: cell-based; conditions: Staphylococcus aureus V41, penicillin resistant strain
Method: as §1
^b Penicillinresistant strain

[9] = system: Staphylococcus aureus X400; experiment: standard agar-dilution assay, MIC; assay type: cell-based; conditions: Staphylococcus aureus X400, methicillin resistant strain
Method: as §1
^c Methicillinresistant-strain

[10] = system: Haemophilus influenzae Holt; experiment: standard agar-dilution assay, MIC; assay type: cell-based; conditions: ampicillin sensitive strain
Method: as §1
^d Ampicillinsensitive strain

[11] = system: Haemophilus influenzae R252; experiment: standard agar-dilution assay, MIC; assay type: cell-based; conditions: Haemophilus influenzae R252, ampicillin resistant strain
Method: as §1
^e Ampicillinresistant strain

Mycoplasma gallisepticum = experiment: conventional broth-dilution microtiter test, MIC; assay type: cell-based
Method: as §1

Mycoplasma hyorhinis = experiment: conventional broth-dilution microtiter test, MIC; assay type: cell-based
Method: as §1

Mycoplasma synoviae = experiment: conventional broth-dilution microtiter test, MIC; assay type: cell-based
Method: as §1

[12] = system: Pasteurella multocida 17E; experiment: conventional broth-dilution microtiter test, MIC; assay type: cell-based; conditions: bovine isolate
Method: as §1

[13] = system: Pasteurella multocida 60A; experiment: conventional broth-dilution microtiter test, MIC; assay type: cell-based; conditions: avian isolate
Method: as §1

Staphylococcus aureus = experiment: conventional broth-dilution microtiter test, MIC; assay type: cell-based
Method: as §1

Streptococcus sp. 80 = experiment: conventional broth-dilution microtiter test, MIC; assay type: cell-based
Method: as §1

[14] = system: Streptococcus pyogenes C203; experiment: experimental bacterial infection in mice, ED50; assay type: in vivo; conditions: doses given 1 and 5 hours postinfection, read-out: ED50 (effective dose to protect 50% of the test animals)
Method: The ester derivatives of this invention have shown in vivo antimicrobial activity against experimental bacterial infections caused by gram-positivebacteria. When two doses of test compound were administered to mice with experimental infections, the activity observed was measured as an ED50 value [effective dose in mg/kg to protect 50% of the test animals: see Warren Wick, et al., J. Bacteriol. 81, 233-235 (1961)].
^a mg/kg × 2; doses given 1 and 5 hours postinfection

Row | Structure (SMILES) | MIC (minimal inhibitory concentration) [1] | MIC (minimal inhibitory concentration) [2] | MIC (minimal inhibitory concentration) [3] | MIC (minimal inhibitory concentration) [4] | MIC (minimal inhibitory concentration) (Streptococcus Group 9960) | MIC (minimal inhibitory concentration) [5] | MIC (minimal inhibitory concentration) [6] | MIC (minimal inhibitory concentration) [7] | MIC (minimal inhibitory concentration) [8] | MIC (minimal inhibitory concentration) [9] | MIC (minimal inhibitory concentration) [10] | MIC (minimal inhibitory concentration) [11] | MIC (minimal inhibitory concentration) (Mycoplasma gallisepticum) | MIC (minimal inhibitory concentration) (Mycoplasma hyorhinis) | MIC (minimal inhibitory concentration) (Mycoplasma synoviae) | MIC (minimal inhibitory concentration) [12] | MIC (minimal inhibitory concentration) [13] | MIC (minimal inhibitory concentration) (Staphylococcus aureus) | MIC (minimal inhibitory concentration) (Streptococcus sp. 80) | ED50 ([14]; C203, mice, oral) [mg/kg] | also measured
1 | CCC1OC(=O)CC(O)C(C)C(OC2OC(C)C(OC3CC(C)(O)C(OC(C)=O)C(C)O3)C(N(C)C)C2OC(C)=O)C(CC=O)CC(C)C(=O)C=CC(C)=CC1COC(C)=O (stereo not shown) [Compound 1, 2',4",23-Tri-O-Acetyl-DMT] | 1 | 1 | 1 | 2 | 1 | 1 | 0.125 | 0.5 | 0.5 | 2 | 16 | 16 | 0.39 | 1.56 | 0.78 | 12.5 | 25 | 3.12 | 0.78 | 179 | 
2 | CCC1OC(=O)CC(O)C(C)C(OC2OC(C)C(OC3CC(C)(O)C(OC(C)=O)C(C)O3)C(N(C)C)C2O)C(CC=O)CC(C)C(=O)C=CC(C)=CC1COC(C)=O (stereo not shown) [Compound 2, 23,4"-Di-O-Acetyl-DMT] | 0.5 | 0.5 | 1 | 1 | 0.5 | 0.5 | 0.125 | 0.25 | 0.25 | 1 | 16 | 16 | 0.097 | 0.78 | 0.39 | 6.25 | 12.5 | 0.78 | 0.39 | 117 | 
3 | CCC(=O)OC1C(C)OC(OC2C(C)OC(OC3C(CC=O)CC(C)C(=O)C=CC(C)=CC(C)C(CC)OC(=O)CC(O)C3C)C(O)C2N(C)C)CC1(C)O (stereo not shown) [Compound 24, 4"-O-Propionyl-DMOT] | 0.5 | 0.5 | 0.5 | 1 | 0.5 | 1 | 0.125 | 0.5 | 1 | 0.5 | 8 | 8 | 0.097 | 3.12 | 0.78 | 6.25 | 12.5 | 0.78 | 0.39 | 71 | ED50 ([14]; C203, sc, mice, subcutaneous): 22 mg/kg
4 | CCC(=O)OC1CC(=O)OC(CC)C(C)C=C(C)C=CC(=O)C(C)CC(CC=O)C(OC2OC(C)C(OC3CC(C)(O)C(OC(=O)CC)C(C)O3)C(N(C)C)C2O)C1C (stereo not shown) [Compound 25, 3,4"-Di-O-propionyl-DMOT] | 0.5 | 0.5 | 1 | 2 | 1 | 1 | 0.25 | 0.5 | 1 | 1 | 32 | 16 | 0.195 | 1.56 | 0.39 | 25 | 50 | 1.56 | 1.56 | 36 | ED50 ([14]; C203, sc, mice, subcutaneous): > 30 mg/kg
